The values below come from paper PMC9574927 (Journal of Medicinal Chemistry, 2022).

The target of one data set is SARS-CoV-2 M^pro (Severe acute respiratory syndrome coronavirus 2, UniProt P0DTD1). The format is biochemical.
For data set [1] the following is noted: mouse.
The nature of another data set: in vivo. The conditions noted are these: male, CD-1, mouse, po, 100 mg/kg.

On to `CC(C)(C)OC(=O)Nc1cccn([C@H](CC2CC2)C(=O)N[C@@H](C[C@@H]2CCNC2=O)C(=O)C(=O)NCc2ccccc2)c1=O` [Compound 13b-H, tert-Butyl (1-((R)-1-(((S)-4-(Benzylamino)-3,4-dioxo-1-((S)-2-oxopyrrolidin-3-yl)butan-2-yl)amino)-3-cyclopropyl-1-oxopropan-2-yl)-2-oxo-1,2-dihydropyridin-3-yl)carbamate], for which the “activity against Mpro in words” value at SARS-CoV-2 M^pro was “nearly inactive”.
As usually defined, the CL/F is clearance divided by bioavailability, as obtained after extravascular dosing. `CC(C)(C)OC(=O)Nc1cccn([C@@H](CC2CC2)C(=O)N[C@@H](C[C@@H]2CCNC2=O)C(=O)C(=O)NCc2ccccc2)c1=O` [Compound 13b-K, tert-Butyl (1-((S)-1-(((S)-4-(Benzylamino)-3,4-dioxo-1-((S)-2-oxopyrrolidin-3-yl)butan-2-yl)amino)-3-cyclopropyl-1-oxopropan-2-yl)-2-oxo-1,2-dihydropyridin-3-yl)carbamate]: in data set [1] (25 mg/kg inhalative), the “lung tissue Cmax” value was 261,748 ± 1294.4 ng/g; the “time of first appearance in plasma and urine post administration” value is no more than 15 min. Besides, in data set [1] (100 mg/kg peroral, DOPS LUV formulation), the “BALF concentrations at 5 h post administration (in words)” value was “in the same range as after inhalative administration of 25 mg/kg”. For the same compound, the “time up to which found in plasma and lung tissue” value in data set [1] (single inhalative dose 25 mg/kg) is “up to 24 h”. This compound also registered a CL/F in “in vivo” of 1160 mL/min/kg.
